Assay results taken from PubChem BioAssay (NCI).
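Where inhibition never reached the appropriate level, the endpoint shown equals the highest concentration tested. Otherwise, values were interpolated linearly from a five-concentration, 48-hour dose response in 96-well plates. GI50: concentration for 50% inhibition of growth. TGI denotes the concentration required for complete inhibition of growth.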

Experiments:
Experiment in all cases: growth of human tumour cells (NCI), 48 h
[1] = tested on: 786-0 renal
[2] = tested on: A498 renal
[3] = tested on: A549 NSCLC
[4] = tested on: ACHN renal
[5] = tested on: BT-549 breast
[6] = tested on: CAKI-1 renal
[7] = tested on: CCRF-CEM leukemia
[8] = tested on: COLO 205 colon
[9] = tested on: DU-145 prostate
[10] = tested on: EKVX NSCLC
[11] = tested on: HCC-2998 colon
[12] = tested on: HCT-116 colon
[13] = tested on: HCT-15 colon
[14] = tested on: HL-60(TB) leukemia
[15] = tested on: HOP-62 NSCLC
[16] = tested on: HOP-92 NSCLC
[17] = tested on: HS 578T breast
[18] = tested on: HT29 colon
[19] = tested on: IGROV1 ovarian
[20] = tested on: K-562 leukemia
[21] = tested on: KM12 colon
[22] = tested on: LOX IMVI melanoma
[23] = tested on: M14 melanoma
[24] = tested on: MALME-3M melanoma
[25] = tested on: MCF7 breast
[26] = tested on: MDA-MB-231 breast
[27] = tested on: MDA-MB-435
[28] = tested on: MDA-MB-468 breast
[29] = tested on: MOLT-4 leukemia
[30] = tested on: NCI-H226 lung
[31] = tested on: NCI-H23 lung
[32] = tested on: NCI-H460 lung
[33] = tested on: NCI-H522 lung
[34] = tested on: NCI/ADR-RES ovarian
[35] = tested on: OVCAR-3 ovarian
[36] = tested on: OVCAR-4 ovarian
[37] = tested on: OVCAR-5 ovarian
[38] = tested on: OVCAR-8 ovarian
[39] = tested on: PC-3 prostate
[40] = tested on: RPMI-8226 leukemia
[41] = tested on: RXF 393 renal
[42] = tested on: SF-268 CNS
[43] = tested on: SF-295 CNS
[44] = tested on: SF-539 CNS
[45] = tested on: SK-MEL-2 melanoma
[46] = tested on: SK-MEL-28 melanoma
[47] = tested on: SK-MEL-5 melanoma
[48] = tested on: SK-OV-3 ovarian
[49] = tested on: SN12C renal
[50] = tested on: SNB-19 CNS
[51] = tested on: SNB-75 CNS
[52] = tested on: SW-620 colon
[53] = tested on: T-47D breast
[54] = tested on: TK-10 renal
[55] = tested on: U251 CNS
[56] = tested on: UACC-257 melanoma
[57] = tested on: UACC-62 melanoma
[58] = tested on: UO-31 renal

Structure (SMILES): CCOc1ccccc1NC(=O)N/C(N)=N/c1nc2ccccc2s1
- GI50 [1]: 0.0296 µM
- TGI [1]: 13.3 µM
- GI50 [2]: 22.1 µM
- TGI [2]: 44.6 µM
- GI50 [3]: 0.0532 µM
- TGI [3]: > 53.1 µM
- GI50 [4]: < 0.0152 µM
- TGI [4]: 22.7 µM
- GI50 [5]: 0.0246 µM
- TGI [5]: 0.126 µM
- GI50 [6]: < 0.0141 µM
- TGI [6]: > 49 µM
- GI50 [7]: 0.0289 µM
- TGI [7]: > 32.5 µM
- GI50 [8]: 0.0301 µM
- TGI [8]: 0.106 µM
- GI50 [9]: 0.0287 µM
- TGI [9]: 11.9 µM
- GI50 [10]: 0.0458 µM
- TGI [10]: 35 µM
- GI50 [11]: 0.0242 µM
- TGI [11]: 10.9 µM
- GI50 [12]: < 0.0157 µM
- TGI [12]: 0.31 µM
- GI50 [13]: < 0.0168 µM
- TGI [13]: 12.6 µM
- GI50 [14]: 0.0177 µM
- TGI [14]: 0.0596 µM
- GI50 [15]: < 0.02 µM
- TGI [15]: 20 µM
- GI50 [16]: 6.33 µM
- TGI [16]: > 58.7 µM
- GI50 [17]: < 0.0107 µM
- TGI [17]: > 78.6 µM
- GI50 [18]: 0.021 µM
- TGI [18]: 0.0673 µM
- GI50 [19]: 0.0274 µM
- TGI [19]: 30.1 µM
- GI50 [20]: < 0.01 µM
- TGI [20]: > 35.6 µM
- GI50 [21]: < 0.0138 µM
- TGI [21]: > 45.8 µM
- GI50 [22]: < 0.0148 µM
- TGI [22]: 15.1 µM
- GI50 [23]: < 0.014 µM
- TGI [23]: 23.2 µM
- GI50 [24]: < 0.0185 µM
- TGI [24]: 45.1 µM
- GI50 [25]: 0.0265 µM
- TGI [25]: 23.3 µM
- GI50 [26]: < 0.0162 µM
- TGI [26]: 0.744 µM
- GI50 [27]: < 0.01 µM
- TGI [27]: 0.0146 µM
- GI50 [28]: 0.0233 µM
- TGI [28]: 0.0615 µM
- GI50 [29]: 0.0388 µM
- TGI [29]: > 33.5 µM
- GI50 [30]: 0.0435 µM
- TGI [30]: 1.48 µM
- GI50 [31]: < 0.0186 µM
- TGI [31]: 23 µM
- GI50 [32]: 0.0264 µM
- TGI [32]: 10.9 µM
- GI50 [33]: < 0.01 µM
- TGI [33]: 0.0201 µM
- GI50 [34]: < 0.01 µM
- TGI [34]: 0.0298 µM
- GI50 [35]: < 0.01 µM
- TGI [35]: 11.4 µM
- GI50 [36]: 11.1 µM
- TGI [36]: 63.6 µM
- GI50 [37]: 0.0378 µM
- TGI [37]: > 41 µM
- GI50 [38]: < 0.0172 µM
- TGI [38]: 26.9 µM
- GI50 [39]: 0.0252 µM
- TGI [39]: > 74.6 µM
- GI50 [40]: 0.0371 µM
- TGI [40]: > 39.7 µM
- GI50 [41]: < 0.0129 µM
- TGI [41]: 40 µM
- GI50 [42]: 0.0846 µM
- TGI [42]: > 100 µM
- GI50 [43]: < 0.0164 µM
- TGI [43]: 13.8 µM
- GI50 [44]: < 0.0119 µM
- TGI [44]: < 0.0225 µM
- GI50 [45]: 0.0259 µM
- TGI [45]: 42.5 µM
- GI50 [46]: 14.5 µM
- TGI [46]: > 100 µM
- GI50 [47]: < 0.0141 µM
- TGI [47]: 0.0341 µM
- GI50 [48]: 0.0491 µM
- TGI [48]: > 77.4 µM
- GI50 [49]: 0.0272 µM
- TGI [49]: 13.8 µM
- GI50 [50]: 0.031 µM
- TGI [50]: 53.8 µM
- GI50 [51]: < 0.01 µM
- TGI [51]: > 69.1 µM
- GI50 [52]: < 0.0175 µM
- TGI [52]: > 42.3 µM
- GI50 [53]: 13.9 µM
- TGI [53]: > 100 µM
- GI50 [54]: > 39.4 µM
- TGI [54]: > 100 µM
- GI50 [55]: < 0.0164 µM
- TGI [55]: 13.7 µM
- GI50 [56]: 32 µM
- TGI [56]: > 100 µM
- GI50 [57]: < 0.01 µM
- TGI [57]: > 55.6 µM
- GI50 [58]: < 0.0308 µM
- TGI [58]: > 88.6 µM
